Columns and labels:
[1] = system: 4th stage larvae (L4) of Dirofilaria immitis; test: Dirofilaria immitis, L4 Stage (DiL4) In Vitro Assay; assay type: cell-based; settings: Dirofilaria immitis, 72 h, read-out: DiL4 Minimum Effective Dose (MED), approximately 72 hours incubation; L4 larvae assessed for survival or paralysis
[2] = system: microfilariae of Dirofilaria immitis; test: Dirofilaria immitis, Microfilaria (DiMF) In vitro Assay; assay type: cell-based; settings: 72 h, read-out: DiMF Minimum Effective Dose (MED), approximately 72 hours incubation, microfilariae assessed for survival or paralysis

CC(C)COc1cnn(Cc2ccc(C[C@H]3OC(=O)[C@H](CC(C)C)N(C)C(=O)[C@@H](C)OC(=O)[C@H](CC(C)C)N(C)C(=O)[C@@H](Cc4ccc(Cn5cc(OCC(C)C)cn5)cc4)OC(=O)[C@H](CC(C)C)N(C)C(=O)[C@@H](C)OC(=O)[C@H](CC(C)C)N(C)C3=O)cc2)c1 [Example 1b-172, (3S,6R,9S,12R,15S,18R,21S,24R)-6,18-bis(4-((4-isobutoxy-1H-pyrazol-1-yl)methyl)benzyl)-3,9,15,21-tetraisobutyl-4,10,12,16,22,24-hexamethyl-1,7,13,19-tetraoxa-4,10,16,22-tetraazacyclotetracosan-2,5,8,11,14,17,20,23-octaone]
minimal effective concentration [1]: 0.001 to 0.01 µM
minimal effective concentration [2]: 0.01 to 0.1 µM

CC(C)C[C@H]1C(=O)O[C@H](Cc2ccc(Cn3cc(Oc4ccccn4)cn3)cc2)C(=O)N(C)[C@@H](CC(C)C)C(=O)O[C@H](C)C(=O)N(C)[C@@H](CC(C)C)C(=O)O[C@H](Cc2ccc(Cn3cc(Oc4ccccn4)cn3)cc2)C(=O)N(C)[C@@H](CC(C)C)C(=O)O[C@H](C)C(=O)N1C [Example 1b-175, (3S,6R,9S,12R,15S,18R,21S,24R)-3,9,15,21-tetraisobutyl-4,6,10,16,18,22-hexamethyl-12,24-bis(4-((4-(pyridin-2-yloxy)-1H-pyrazol-1-yl)methyl)benzyl)-1,7,13,19-tetraoxa-4,10,16,22-tetraazacyclotetracosan-2,5,8,11,14,17,20,23-octaone]
minimal effective concentration [1]: 0.001 to 0.01 µM
minimal effective concentration [2]: 0.001 to 0.01 µM

CC(C)C[C@H]1C(=O)O[C@H](Cc2ccc(Cn3cc(C#CC4CC4)cn3)cc2)C(=O)N(C)[C@@H](CC(C)C)C(=O)O[C@H](C)C(=O)N(C)[C@@H](CC(C)C)C(=O)O[C@H](Cc2ccc(Cn3cc(C#CC4CC4)cn3)cc2)C(=O)N(C)[C@@H](CC(C)C)C(=O)O[C@H](C)C(=O)N1C [Example 1b-113, (3S,6R,9S,12R,15S,18R,21S,24R)-6,18-bis(4-((4-(cyclopropylethynyl)-1H-pyrazol-1-yl)methyl)benzyl)-3,9,15,21-tetraisobutyl-4, 10,12,16,22,24-hexamethyl-1,7,13,19-tetraoxa-4,10,16,22-tetraazacyclotetracosan-2,5,8,11,14,17,20,23-octaone]
minimal effective concentration [1]: 0.0001 to 0.001 µM
minimal effective concentration [2]: 0.01 to 0.1 µM

CC#Cc1cnn(Cc2ccc(C[C@H]3OC(=O)[C@H](CC(C)C)N(C)C(=O)[C@@H](C)OC(=O)[C@H](CC(C)C)N(C)C(=O)[C@@H](Cc4ccccc4)OC(=O)[C@H](CC(C)C)N(C)C(=O)[C@@H](C)OC(=O)[C@H](CC(C)C)N(C)C3=O)cc2)c1 [Example 2-76, (3S,6R,9S,12R,15S,18R,21S,24R)-6-benzyl-3,9,15,21-tetraisobutyl-4,10,12,16,22,24-hexamethyl-18-(4-((4-(prop-1-yn-1-yl)-1H-pyrazol-1-yl)methyl)benzyl)-1,7,13,19-tetraoxa-4,10,16,22-tetraazacyclotetracosan-2,5,8,11,14,17,20,23-octaone]
minimal effective concentration [1]: 0.0001 to 0.001 µM
minimal effective concentration [2]: 0.001 to 0.01 µM

CC(C)C[C@H]1C(=O)O[C@H](Cc2ccc(CN3CCOc4ncccc43)cc2)C(=O)N(C)[C@@H](CC(C)C)C(=O)O[C@H](C)C(=O)N(C)[C@@H](CC(C)C)C(=O)O[C@H](Cc2ccccc2)C(=O)N(C)[C@@H](CC(C)C)C(=O)O[C@H](C)C(=O)N1C [Example 10-38, (3S,6R,9S,12R,15S,18R,21S,24R)-6-benzyl-18-[[4-(2,3-dihydropyrido[2,3-b][1,4]oxazin-1-ylmethyl)phenyl]methyl]-3,9,15,21-tetraisobutyl-4,10,12,16,22,24-hexamethyl-1,7,13,19-tetraoxa-4, 10,16,22-tetrazacyclotetracosane-2,5,8,11,14,17,20,23-octaone]
minimal effective concentration [1]: 0.0001 to 0.001 µM
minimal effective concentration [2]: 0.001 to 0.01 µM

CCCc1ccnn1Cc1ccc(C[C@H]2OC(=O)[C@H](CC(C)C)N(C)C(=O)[C@@H](C)OC(=O)[C@H](CC(C)C)N(C)C(=O)[C@@H](Cc3ccc(Cn4nccc4CCC)cc3)OC(=O)[C@H](CC(C)C)N(C)C(=O)[C@@H](C)OC(=O)[C@H](CC(C)C)N(C)C2=O)cc1 [Example 1b-205, (3S,6R,9S,12R,15S,18R,21S,24R)-3,9,15,21-tetraisobutyl-4,6,10,16,18,22-hexamethyl-12,24-bis(4-((5-propyl-1H-pyrazol-1-yl)methyl)benzyl)-1,7,13,19-tetraoxa-4,10,16,22-tetraazacyclotetracosan-2,5,8,11,14,17,20,23-octaone]
minimal effective concentration [1]: 0.0001 to 0.001 µM
minimal effective concentration [2]: 0.001 to 0.01 µM

Cc1nn(Cc2ccc(C[C@H]3OC(=O)[C@H](CC(C)C)N(C)C(=O)[C@@H](C)OC(=O)[C@H](CC(C)C)N(C)C(=O)[C@@H](Cc4ccc(Cn5ncc(OC(C)C)c5C)cc4)OC(=O)[C@H](CC(C)C)N(C)C(=O)[C@@H](C)OC(=O)[C@H](CC(C)C)N(C)C3=O)cc2)cc1OC(C)C [Example 1a-39, (3S,6R,9S,12R,15S,18R,21S,24R)-3,9,15,21-tetraisobutyl-6-[[4-[(4-isopropoxy-3-methyl-pyrazol-1-yl)methyl]phenyl]methyl]-18-[[4-[(4-isopropoxy-5-methyl-pyrazol-1-yl)methyl]phenyl]methyl]-4,10,12,16,22,24-hexamethyl-1,7,13,19-tetraoxa-4,10,16,22-tetrazacyclotetracosane-2,5,8,11,14,17,20,23-octaone]
minimal effective concentration [1]: 0.001 to 0.01 µM
minimal effective concentration [2]: 0.01 to 0.1 µM

CC(C)C[C@H]1C(=O)O[C@H](Cc2ccc(Cn3cc(Oc4nccs4)cn3)cc2)C(=O)N(C)[C@@H](CC(C)C)C(=O)O[C@H](C)C(=O)N(C)[C@@H](CC(C)C)C(=O)O[C@H](Cc2ccc(Cn3cc(Oc4nccs4)cn3)cc2)C(=O)N(C)[C@@H](CC(C)C)C(=O)O[C@H](C)C(=O)N1C [Example 1b-174, (3S,6R,9S,12R,15S,18R,21S,24R)-3,9,15,21-tetraisobutyl-4,6,10,16,18,22-hexamethyl-12,24-bis(4-((4-(thiazol-2-yloxy)-1H-pyrazol-1-yl)methyl)benzyl)-1,7,13,19-tetraoxa-4,10,16,22-tetraazacyclotetracosan-2,5,8,11,14,17,20,23-octaone]
minimal effective concentration [1]: 0.001 to 0.01 µM
minimal effective concentration [2]: 0.001 to 0.01 µM

CC(C)Cc1ccnn1Cc1ccc(C[C@H]2OC(=O)[C@H](CC(C)C)N(C)C(=O)[C@@H](C)OC(=O)[C@H](CC(C)C)N(C)C(=O)[C@@H](Cc3ccc(Cn4nccc4CC(C)C)cc3)OC(=O)[C@H](CC(C)C)N(C)C(=O)[C@@H](C)OC(=O)[C@H](CC(C)C)N(C)C2=O)cc1 [Example 1b-209, (3S,6R,9S,12R,15S,18R,21S,24R)-3,9,15,21-tetraisobutyl-6,18-bis(4-((5-isobutyl-1H-pyrazol-1-yl)methyl)benzyl)-4,10,12,16, 22,24-hexamethyl-1,7,13,19-tetraoxa-4,10,16,22-tetraazacyclotetracosan-2,5,8,11,14,17,20,23-octaone]
minimal effective concentration [1]: 0.0001 to 0.001 µM
minimal effective concentration [2]: 0.01 to 0.1 µM

CC(C)C[C@H]1C(=O)O[C@H](Cc2ccc(Cn3ccnc3C(F)(F)F)cc2)C(=O)N(C)[C@@H](CC(C)C)C(=O)O[C@H](C)C(=O)N(C)[C@@H](CC(C)C)C(=O)O[C@H](Cc2ccccc2)C(=O)N(C)[C@@H](CC(C)C)C(=O)O[C@H](C)C(=O)N1C [Example 8-12, (3S,6R,9S,12R,15S,18R,21S,24R)-6-benzyl-3,9,15,21-tetraisobutyl-4,10,12,16,22,24-hexamethyl-18-(4-((2-(trifluoromethyl)-1H-imidazol-1-yl)methyl)benzyl)-1,7,13,19-tetraoxa-4,10,16,22-tetraazacyclotetracosan-2,5,8,11,14,17,20,23-octaone]
minimal effective concentration [1]: 0.0001 to 0.001 µM
minimal effective concentration [2]: 0.001 to 0.01 µM

CC(C)C[C@H]1C(=O)O[C@H](Cc2ccc(Cn3nc(C#N)cc3C#N)cc2)C(=O)N(C)[C@@H](CC(C)C)C(=O)O[C@H](C)C(=O)N(C)[C@@H](CC(C)C)C(=O)O[C@H](Cc2ccc(Cn3cc(Br)c(C#N)n3)cc2)C(=O)N(C)[C@@H](CC(C)C)C(=O)O[C@H](C)C(=O)N1C [Example 1a-1, 1-(4-(((2R,5S,8R,11S,14R,17S,20R,23S)-14-(4-((4-bromo-3-cyano-1H-pyrazol-1-yl)methyl)benzyl)-5,11,17,23-tetraisobutyl-4,8,10,16,20,22-hexamethyl-3,6,9,12,15,18,21,24-octaoxo-1,7,13,19-tetraoxa-4,10,16,22-tetraazacyclotetracosan-2-yl)methyl)benzyl)-1H-pyrazole-3,5-dicarbonitrile]
minimal effective concentration [1]: 0.0001 to 0.001 µM
minimal effective concentration [2]: 0.001 to 0.01 µM

CC(C)C[C@H]1C(=O)O[C@H](Cc2ccc(Cn3nccc3-c3ccccc3)cc2)C(=O)N(C)[C@@H](CC(C)C)C(=O)O[C@H](C)C(=O)N(C)[C@@H](CC(C)C)C(=O)O[C@H](Cc2ccc(Cn3nccc3-c3ccccc3)cc2)C(=O)N(C)[C@@H](CC(C)C)C(=O)O[C@H](C)C(=O)N1C [Example 1b-128, (3S,6R,9S,12R,15S,18R,21S,24R)-3,9,15,21-tetraisobutyl-4,6,10,16,18,22-hexamethyl-12,24-bis(4-((5-phenyl-1H-pyrazol-1-yl)methyl)benzyl)-1,7,13,19-tetraoxa-4,10,16,22-tetraazacyclotetracosan-2,5,8,11,14,17,20,23-octaone]
minimal effective concentration [1]: 0.001 to 0.01 µM
minimal effective concentration [2]: 0.01 to 0.1 µM

CCC#Cc1cnn(Cc2ccc(C[C@H]3OC(=O)[C@H](CC(C)C)N(C)C(=O)[C@@H](C)OC(=O)[C@H](CC(C)C)N(C)C(=O)[C@@H](Cc4ccccc4)OC(=O)[C@H](CC(C)C)N(C)C(=O)[C@@H](C)OC(=O)[C@H](CC(C)C)N(C)C3=O)cc2)c1 [Example 2-77, (3S,6R,9S,12R,15S,18R,21S,24R)-6-benzyl-18-(4-((4-(but-1-yn-1-yl)-1H-pyrazol-1-yl)methyl)benzyl)-3,9,15,21-tetraisobutyl-4,10,12,16,22,24-hexamethyl-1,7,13,19-tetraoxa-4,10,16,22-tetraazacyclotetracosan-2,5,8,11,14,17,20,23-octaone]
minimal effective concentration [1]: 0.0001 to 0.001 µM
minimal effective concentration [2]: 0.001 to 0.01 µM

— patent US11331369B2, “Endoparasitic depsipeptides” (Zoetis Services LLC, priority 2017, dated 2022)
